In the supplement of paper PMC10307832:

What was measured:
Assay in all cases: relative viability (nuclei count vs DMSO), 5 days (fraction); higher = more cells survive
Lestaurtinib + Olaparib = compound: C[C@]12O[C@H](C[C@]1(O)CO)n1c3ccccc3c3c4c(c5c6ccccc6n2c5c31)CNC4=O [Lestaurtinib] + O=C(c1cc(Cc2n[nH]c(=O)c3ccccc23)ccc1F)N1CCN(C(=O)C2CC2)CC1 [Olaparib] (partner 8 µM)
Summary of the method: (§1)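 Relative viability equals treated-well nuclei counts divided by vehicle-well nuclei counts. Counts came from 4× images of lung cancer cell lines grown in 1536-well plates for 5 days after pin-tool dosing on the day after seeding. Dosing used one drug alone or a fixed anchor-drug dose plus five library-drug doses (not always all listed) in √10 steps, and values are medians of duplicate plates.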

Lestaurtinib + AZD7762 = compound: C[C@]12O[C@H](C[C@]1(O)CO)n1c3ccccc3c3c4c(c5c6ccccc6n2c5c31)CNC4=O [Lestaurtinib] + NC(=O)Nc1cc(-c2cccc(F)c2)sc1C(=O)N[C@H]1CCCNC1 [AZD7762] (partner 0.2 µM)
Summary of the method: as §1

TPCA-1 + Trametinib = compound: C1=CC(=CC=C1C2=CC(=C(S2)NC(=O)N)C(=O)N)F [TPCA-1] + CC(=O)Nc1cccc(-n2c(=O)n(C3CC3)c(=O)c3c(Nc4ccc(I)cc4F)n(C)c(=O)c(C)c32)c1 [Trametinib] (partner 0.02 µM)
Summary of the method: as §1

[1] = compound: C1/C(=C\C2=CC=CS2)/C(=O)/C(=C/C3=CC=CS3)/C1 + CC(=O)Nc1cccc(-n2c(=O)n(C3CC3)c(=O)c3c(Nc4ccc(I)cc4F)n(C)c(=O)c(C)c32)c1 [Trametinib] (partner 0.02 µM)
Summary of the method: as §1

Cell Line	relative viability (Lestaurtinib + Olaparib; first compound 0.01581 µM)	relative viability (Lestaurtinib + Olaparib; first compound 0.1581 µM)	relative viability (Lestaurtinib + Olaparib; first compound 0.5 µM)	relative viability (Lestaurtinib + AZD7762; first compound 0.01581 µM)	relative viability (Lestaurtinib + AZD7762; first compound 0.1581 µM)	relative viability (Lestaurtinib + AZD7762; first compound 0.5 µM)	relative viability (TPCA-1 + Trametinib; first compound 0.04 µM)	relative viability (TPCA-1 + Trametinib; first compound 0.1265 µM)	relative viability (TPCA-1 + Trametinib; first compound 0.4 µM)	relative viability (TPCA-1 + Trametinib; first compound 1.265 µM)	relative viability (TPCA-1 + Trametinib; first compound 4 µM)	relative viability ([1]; first compound 0.2 µM)	relative viability ([1]; first compound 0.6325 µM)	relative viability ([1]; first compound 2 µM)	relative viability ([1]; first compound 6.325 µM)	relative viability ([1]; first compound 20 µM)	relative viability (Lestaurtinib + Olaparib; first compound 0.005 µM)	relative viability (Lestaurtinib + Olaparib; first compound 0.05 µM)	relative viability (Lestaurtinib + AZD7762; first compound 0.005 µM)	relative viability (Lestaurtinib + AZD7762; first compound 0.05 µM)
NCI-H1648	0.979	1.08	0.478	1.47	0.977	0.644	0.505	0.473	0.378	0.169	0.582	0.604	0.628	0.435	0.417	0.256				
NCI-H1651	0.199	0.169	0.147	0.503	0.558	0.318	0.894	0.799	0.838	0.824	0.787	0.861	0.775	0.816	0.807	0.843	0.166	0.17	0.447	0.349
NCI-H1666	0.799	0.976	0.827	0.903	1.01	0.654	0.838	0.7	0.879	0.804	0.787	0.855	0.86	0.791	0.861	0.77	0.779	0.871	0.753	0.933
NCI-H1734	0.626	0.533	0.271	0.512	0.326	0.18	0.754	0.598	0.7	0.644	0.628	0.825	0.575	0.658	0.578	0.626	0.647	0.578	0.502	0.447
NCI-H1755	0.944	0.628	0.373	0.401	0.344	0.25	0.846	0.716	0.72	0.714	0.591	0.75	0.768	0.794	0.627	0.714	0.953	0.753	0.437	0.492
NCI-H1792	0.495	0.267	0.164	0.669	0.387	0.174	0.489	0.333	0.394	0.374	0.243	0.432	0.531	0.533	0.525	0.35	0.593	0.434	0.758	0.556
NCI-H1793	1.05	0.848	0.482	0.485	0.422	0.303	0.466	0.473	0.4	0.451	0.384	0.429	0.452	0.49	0.403	0.463	0.97	0.549	0.406	0.357
NCI-H1915	0.285	0.296	0.143	0.745	0.52	0.24	0.343	0.272	0.286	0.279	0.263	0.311	0.309	0.315	0.262	0.322	0.259	0.273	0.751	0.655
NCI-H1944	0.479	0.419	0.344	0.514	0.487	0.228	0.423	0.373	0.426	0.355	0.294	0.393	0.421	0.424		0.388	0.437	0.34	0.609	0.623
NCI-H1975	0.856	0.757	0.408	0.86	0.745	0.511	0.358	0.365	0.392	0.43	0.147	0.345	0.326	0.282	0.321	0.362	0.802	0.651	0.806	0.693
NCI-H1993	1.16	1.04	0.463	0.553	0.632	0.47	0.545	0.563	0.563	0.423	0.425	0.491	0.412	0.478	0.437	0.447	0.76	1.14	0.581	0.619
NCI-H2085	0.755	0.935	0.84	0.938	0.98	0.827		0.613	0.655	0.532	0.514	0.516	0.513	0.545	0.635	0.538	0.804	0.835	0.917	0.941
NCI-H2087	0.725	0.673	0.309	1.2	0.761	0.302	0.201	0.163	0.231	0.152	0.139	0.201	0.17	0.18	0.157	0.294	0.589	0.559	1.27	1.06
NCI-H2126	0.971	0.852	0.842	1.01	0.988	0.813	0.534	0.528	0.58	0.538	0.555	0.554	0.586	0.576	0.502	0.585	1.03	0.812	1.04	0.877
NCI-H2170	0.596	0.45	0.206	0.784	0.83	0.241	0.903	0.907	0.937	0.866	0.455	0.918	0.92	0.863	0.78	0.867	0.551	0.407	0.847	0.655
NCI-H2342	0.432	0.43	0.501	0.51	0.583	0.407	0.792	0.685	0.79	0.829	0.944	0.859	0.819	0.801	0.672	0.899	0.44	0.439	0.473	0.469
